Data as given in ChEMBL document CHEMBL5579865, “Discovery of Broad-Spectrum Herpes Antiviral Oxazolidinone Amide Derivatives and Their Structure-Activity Relationships” (ACS Med Chem Lett, 2024).

Columns and labels:
[1] = Inhibition of HCMV DNA polymerase extracted from baculovirus infected Sf21 cells using Heterodimeric nucleic acid as substrate preincubated with enzyme for 30 mins followed by substrate and dATP addition measured after 60 mins by biotinylated UTP incorporation based AlphaLISA assay; design: species or system Human betaherpesvirus 5
[2] = Inhibition of VZV DNA polymerase extracted from baculovirus infected Sf21 cells using Heterodimeric nucleic acid as substrate preincubated with enzyme for 30 mins followed by substrate and dATP addition measured after 60 mins by biotinylated UTP incorporation based AlphaLISA assay; design: species or system Human alphaherpesvirus 3
Human betaherpesvirus 5 = assay: Antiviral activity against HCMV AD169 infected in human MRC5 cells assessed as reduction in viral replication incubated for 72 hrs in presence of 50 % serum by qRT-PCR analysis; assay type: functional, organism-based
Human alphaherpesvirus 3 = assay: Antiviral activity against VZV Street infected in human MeWo cells assessed as reduction in viral replication incubated for 72 hrs by qRT-PCR analysis; assay type: functional, organism-based
Human alphaherpesvirus 1 = assay: Antiviral activity against HSV-1 F strain infected in African green monkey Vero cells assessed as reduction in viral replication incubated for 72 hrs by qRT-PCR analysis; assay type: functional, organism-based
Human alphaherpesvirus 2 = assay: Antiviral activity against HSV-2 G strain infected in African green monkey Vero cells assessed as reduction in viral replication incubated for 72 hrs by qRT-PCR analysis; assay type: functional, organism-based
[3] = Human betaherpesvirus 5, AD169, MRC5, 72 h, read-out: EC50
[4] = Human alphaherpesvirus 3, Street, MeWo, 72 h, read-out: EC50
[5] = Human alphaherpesvirus 1, F strain, Vero, 72 h, read-out: EC50
[6] = Human alphaherpesvirus 2, G strain, Vero, 72 h, read-out: EC50

| SMILES | IC50 [1] | IC50 [2] | EC50 (Human betaherpesvirus 5; [3]) | EC50 (Human alphaherpesvirus 3; [4]) | EC50 (Human alphaherpesvirus 1; [5]) | EC50 (Human alphaherpesvirus 2; [6]) | EC50 (Human betaherpesvirus 5) | EC50 (Human alphaherpesvirus 3) | EC50 (Human alphaherpesvirus 1) | EC50 (Human alphaherpesvirus 2) |
| --- | --- | --- | --- | --- | --- | --- | --- | --- | --- | --- |
| COc1cc(NC(=O)Cc2ccc(Cl)c(F)c2)ccc1C[C@H]1COC(=O)N1 | 0.097 µM | 0.036 µM | 1.94 µM | 0.126 µM | 0.299 µM | 0.647 µM | – | – | – | – |
| O=C(Cc1ccc(Cl)cc1)Nc1ccc(C[C@H]2COC(=O)N2)cc1 | 0.25 µM | 0.18 µM | 4.32 µM | 0.5 µM | 0.53 µM | 1.34 µM | – | – | – | – |
| O=C1NC(Cc2ccc(C(=O)NCc3ccc(Cl)cc3)cc2)CO1 (centres undefined) | 116 µM | 26 µM | – | – | – | – | Not Active | Not Active | Not Active | Not Active |
| O=C(Cc1ccc(Cl)cc1)Nc1ccc(C(=O)c2ccccc2)cc1 | 18 µM | 24.7 µM | – | – | – | – | – | – | – | – |
| COc1cc(NC(=O)Cc2ccc(F)c(Cl)c2)ccc1C[C@H]1COC(=O)N1 | 0.357 µM | 0.236 µM | 7.07 µM | 0.441 µM | 2.15 µM | 5.25 µM | – | – | – | – |
| N#CC1(c2ccc(NC(=O)Cc3ccc(Cl)cc3)cc2)CC1 | 8.3 µM | 2.7 µM | – | – | – | – | – | – | – | – |
| N#CCc1ccc(NC(=O)Cc2ccc(Cl)cc2)cc1 | 50.8 µM | 40.9 µM | – | – | – | – | – | – | – | – |
| O=C(Cc1ccc(Cl)cc1)Nc1ccc(CC2COC(=O)N2)cn1 (racemic) | 4.1 µM | 2.11 µM | 61.7 µM | 4.46 µM | 13.3 µM | 11.4 µM | – | – | – | – |
| CS(=O)(=O)c1cccc(Cc2ccc(NC(=O)Cc3ccc(Cl)cc3)cc2)c1 | 13.3 µM | 12.5 µM | – | – | – | – | – | – | – | – |
| CC(C(=O)Nc1ccc(C[C@H]2COC(=O)N2)cc1)c1ccc(Cl)cc1 (some centres undefined) | 7.19 µM | 7.73 µM | – | – | – | – | Not Active | Not Active | Not Active | Not Active |
| O=C(Cc1ccc(Cl)cc1Cl)Nc1ccc(C[C@H]2COC(=O)N2)cc1 | 0.13 µM | 0.13 µM | 1.34 µM | 0.54 µM | 0.81 µM | 0.91 µM | – | – | – | – |
| O=C(Cc1ccc([N+](=O)[O-])cc1)Nc1ccc(C[C@H]2COC(=O)N2)cc1 | 0.176 µM | 0.079 µM | 0.72 µM | 0.185 µM | 0.177 µM | 0.473 µM | – | – | – | – |
| O=C1CC(c2ccc(NC(=O)Cc3ccc(Cl)cc3)cc2)CN1 (racemic) | 23.3 µM | 8.2 µM | – | – | – | – | – | – | – | – |
| Cc1nccn1Cc1ccc(NC(=O)Cc2ccc(Cl)cc2)cc1 | 55 µM | 34.8 µM | – | – | – | – | – | – | – | – |
| O=C(Cc1ccc(Cl)cc1)Nc1ccc(CC(F)(F)F)cc1 | 133 µM | 77.9 µM | – | – | – | – | – | – | – | – |
| COc1cc(NC(=O)Cc2ccc(Cl)cc2)c(C)cc1C[C@H]1COC(=O)N1 | 10.8 µM | 13.9 µM | – | – | – | – | Not Active | Not Active | Not Active | Not Active |
| CC(=O)c1ccc(NC(=O)Cc2ccc(Cl)cc2)cc1 | 6.6 µM | 4.8 µM | – | – | – | – | – | – | – | – |
| O=C(Cc1ccc(Cl)cc1)Nc1ccc(C[C@@H]2COC(=O)N2)cc1 | 2.81 µM | 0.79 µM | 55.6 µM | 14.8 µM | 7.3 µM | 8.69 µM | – | – | – | – |
| C[C@H](c1ccc(NC(=O)Cc2ccc(Cl)cc2)cc1)[C@H]1COC(=O)N1 | 16.7 µM | 6.5 µM | – | – | – | – | Not Active | Not Active | Not Active | Not Active |
| O=C(Cc1ccc(Cl)cc1)Nc1cnc(C[C@H]2COC(=O)N2)cn1 | 6.5 µM | 2.09 µM | 94 µM | – | 25.7 µM | 44.8 µM | – | Not Active | – | – |
| O=C(Cc1ccc(Cl)cc1)Nc1ccc(Cn2cncn2)cc1 | 12.1 µM | 4.5 µM | – | – | – | – | – | – | – | – |
| O=C(Cc1ccc(Cl)cc1)Nc1ccc(Cc2ccccc2)cc1 | > 133 µM | 67 µM | – | – | – | – | – | – | – | – |
| CC(C)(c1ccccc1)c1ccc(NC(=O)Cc2ccc(Cl)cc2)cc1 | > 133 µM | > 133 µM | – | – | – | – | – | – | – | – |
